The test system of series [1] is Mycobacterium tuberculosis H37Rv. Also noted: method as in earlier work. Particulars: M. tuberculosis H37Rv; cited from earlier work.
Series [2] is described as follows: Epimerization/interconversion of hemiaminal isomers followed by HPLC. The series is classed as physicochemical. The conditions noted are these: non-aqueous solvents. The text has this: An interesting feature we identified during HPLC studies is that compounds 7 and 6 epimerize/interconvert in […] solvents (e.g., MeOH or CH3CN); this interconversion also was noted under neat conditions following periods of long-term storage. […] The possibility interchange of these two pairs of compounds was postulated (Supplementary Fig. 34B). […] It is indeed interesting to consider that cyclic hemiaminal installation in ilamycins C1, C2, E1, and E2 is likely reflective of a transient C33 aldehyde and that the αOH orientation is preferred; presumably this is driven to some extent by the fixed stereochemical orientations at C24 and C32 in each respective case (Fig. 3f). By virtue of this interconversion chemistry it is significant to note that assays carried out with these agents likely involved the use of isomeric mixtures of 6/7 and 3/4 and no one specific isomer.

A word on the MIC: it is the least concentration at which growth counts as inhibited.

Take `CC=CCC1NC(=O)C(CC(C)C)N2C(=O)C(CC(C)C2O)N(C)C(=O)C(C)NC(=O)C(Cc2ccc(O)c([N+](=O)[O-])c2)NC(=O)C(CC(C)C)N(C)C(=O)C(Cc2cn(C(C)(C)C3CO3)c3ccccc23)NC1=O` (centres unmarked) [compound 3, ilamycin C1]: the minimum inhibitory concentration (MIC) in series [1] is less than 1.3 µg/mL.

Turning to `C=CC(C)(C)n1cc(C[C@@H]2NC(=O)[C@H](C/C=C/C)NC(=O)[C@H](CC(C)C)N3C(=O)[C@H](C[C@H](C)[C@H]3O)N(C)C(=O)[C@H](C)NC(=O)[C@H](Cc3ccc(O)c([N+](=O)[O-])c3)NC(=O)[C@H](CC(C)C)N(C)C2=O)c2ccccc21` [compound 6, ilamycin E1], the stability result in series [2] was “reasonably stable”.

These data come from article PMC5577134 (Nature Communications, 2017).
